Assay: gradient 5% acetonitrile 3 min, to 50% in 2 min, to 85% in 15 min, held 3 min, 100 µL/min
Conditions: column: Zorbax Extend-C18 2.1 x 50 mm; eluents: water / acetonitrile, 0.1% formic acid
In short: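 Pure standards were analyzed in mixtures of ~100 molecules using HPLC coupled to a quadrupole time-of-flight mass spectrometer, in both positive and negative ionization mode. Separation used a Zorbax Extend-C18 column (2.1 × 50 mm, 1.8 μm) at 100 μL/min, with water and acetonitrile each containing 0.1% formic acid. Dead and dwell volumes were 40 μL and 900 μL, and data were collected over 3 months. Retention time was read from computationally picked adduct peaks, each inspected manually.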

| Structure (SMILES) | RP-LC retention time |
| --- | --- |
| Cc1ccc(C)c(N2CCN(C(=O)Cn3cccc3-c3nnc(C4CC4)o3)CC2)c1 | 1020 s |
| Cc1nc2c(c(C)c1CCC(=O)NCC1CCN(CC(C)C)C1)c(=O)n(C)c(=O)n2C (centres undefined) | 610 s |
| Cc1ccc(Oc2cccc(C(=O)NCc3ccc(F)cc3)c2)nn1 | 681 s |
| O=C(c1ccoc1)N1CCN(S(=O)(=O)c2cc(-c3noc(C4CCC4)n3)cs2)CC1 | 943 s |
| CCOC(=O)c1oc2ccccc2c1NC(=O)C1CCN(S(C)(=O)=O)CC1 | 762 s |
| CC1CN(Cc2nc3c(c(=O)n(C)c(=O)n3C)n2Cc2ccc(Br)cc2)CC(C)O1 (centres undefined) | 755 s |
| CN(C)C(CNC(=O)c1cc(-c2cccs2)on1)c1ccc(F)cc1 (centres undefined) | 668 s |
| Cn1ncc2c(N3CCSCC3)nc(C(=O)N3CCN(Cc4ccccc4)CC3)nc21 | 600 s |
| CCOC(=O)CNC(=O)Nc1cc(F)c2nc(N3CCCC3)ccc2c1 | 590 s |
| CCCC(CCC)C(=O)Nc1cc(-c2cn3cccnc3n2)ccc1C | 758 s |
| COc1cc(NC(=O)C2CCN(S(=O)(=O)c3ccc4c(c3)sc(=O)n4C)CC2)cc(OC)c1 | 875 s |
| O=C1CCCCC(CNC(=O)c2n[nH]c(=O)c3ccccc23)N1 (centres undefined) | 604 s |
| COc1ccc(-c2nc3cc(C)ccn3c2NC(=O)c2ccc([N+](=O)[O-])cc2)cc1 | 691 s |
| CC1(C)NC(=O)N(CCCCCCN2C(=O)NC(C)(C)C2=O)C1=O | 623 s |
| CC(CCNC(=O)c1nnc(-c2ccc(S(=O)(=O)N3CCOCC3)cc2)o1)N1CCCCCC1 (centres undefined) | 605 s |
| CC(C)c1ccc(-c2nc(C3CC(=O)N(c4ccc(F)cc4)C3)no2)cc1 (centres undefined) | 1180 s |
| COc1ccc(-c2cc3nn(CC(=O)Nc4c(C)cccc4C)c(=O)n3c(C)n2)cc1 | 909 s |
| Cc1cc(=O)n(CC(=O)Nc2cc(F)ccc2C)c(N2CCCC2)n1 | 635 s |
| CC1(C)N=C(N)N=C(N)N1c1ccc(CCCCc2ccc(Cl)cc2Cl)cc1 | 878 s |
| CC(C)c1nnc(-c2cccnc2N2CCN(C(=O)c3ccoc3)CC2)o1 | 725 s |
| Cc1cccc(-c2csc3c(=O)n(Cc4ccccn4)cnc23)c1 | 877 s |
| O=C(CCn1nnc2cc(-c3noc(COc4ccccc4)n3)ccc21)N1CCOCC1 | 826 s |
| CCc1nccn1Cc1nc(-c2cccc(OC)c2OC)no1 | 605 s |

| Structure (SMILES) | RP-LC retention time |
| --- | --- |
| Cc1noc(C)c1S(=O)(=O)Nc1cccc(-c2nc(-c3cccc(Br)c3)co2)c1 | 1230 s |
| O=C(C1CCN(c2nc3ccc(-c4ccccc4)nc3s2)CC1)N1CCOCC1 | 810 s |
| COc1cccc(C(=O)N2CCC(Oc3nc4c(C)ccc(C)c4s3)CC2)c1OC | 1220 s |
| Cc1ccc(S(=O)(=O)N(C)CCCC(=O)N2CCN(c3ccccn3)CC2)cc1 | 576 s |
| CCOc1ccc(-n2nnnc2CNC(=O)NCc2cccs2)cc1 | 714 s |
| Cc1cccn2cc(C(=O)NCc3ccc4c(c3)OCO4)nc12 | 679 s |
| Cc1ccc(NC(=O)N2CCC3(CC2)NC(=O)c2ccccc2O3)cc1Cl | 831 s |
| CCc1nc2cc(N3CCCC(C(=O)NCc4ccco4)C3)cnc2nc1CC (centres undefined) | 673 s |
| CC(=O)N1CCc2ccccc2C1C(=O)NC1CCCCCC1 (centres undefined) | 831 s |
| CCN1c2cc(C(=O)NC3CCN(Cc4ccccc4)CC3)ccc2C(=O)N2CCCCC21 (centres undefined) | 638 s |
| Brc1ccc(-c2nc(-c3ccc4nncn4c3)no2)cc1 | 913 s |
| Cn1c(=O)c2cc(C(=O)NCC3CCCCC3)nn2c2ccccc21 | 957 s |
| COc1ccccc1N1CCN(C(=O)C2CCN(S(=O)(=O)c3cn(C(C)C)cn3)CC2)CC1 | 716 s |
| Cc1nnc2ccc(-c3noc(Cc4ccc(Cl)cc4)n3)cn12 | 868 s |
| CCC(C)NC(=O)c1cc(=O)[nH]c2c(C)cccc12 (centres undefined) | 661 s |
| CS(=O)(=O)c1ccc(-c2cccc(NC(=O)Cc3cccs3)c2)nn1 | 707 s |
| CC(=O)Nc1ccc(-n2cnc(C(=O)N3CCN(c4cccc(Cl)c4)CC3)c2)nc1 | 749 s |
| CC(=O)Nc1ccc(C2(C(=O)NCc3ccc(C)cc3)CCC2)cc1 | 790 s |
| COc1cc(C(=O)Nc2nc3c(s2)CCc2ccccc2-3)cc(OC)c1OC | 1110 s |
| O=C(CN1CC(c2nc(-c3ncccn3)no2)C1)Nc1ccc(F)c(Cl)c1 | 576 s |
| CC1CCCN(S(=O)(=O)c2ccc(-n3cnc(C(=O)N4CCCC4)c3)nc2)C1 (centres undefined) | 817 s |
| O=c1cc(-c2ccccc2)nc2n1CCN2CCCN1CCOCC1 | 582 s |
| O=C(NCc1ccccn1)C1CC(=O)N(CCc2c[nH]c3ccc(Cl)cc23)C1 (centres undefined) | 627 s |

| Structure (SMILES) | RP-LC retention time |
| --- | --- |
| O=C(c1ccncc1)N1CCC(n2c(-c3ccco3)nc3cccnc32)C1 (centres undefined) | 689 s |
| CCOc1ccc(CNC(=O)C2CCCN(c3nccnc3Sc3ccccc3)C2)cc1OCC (centres undefined) | 1030 s |
| O=C(Cn1c(CO)cnc1SCc1ccc(Cl)c(Cl)c1)NC1CC1 | 585 s |
| Cc1nc(-c2ccccc2)nn1C1CCN(S(=O)(=O)c2cccnc2)C1 (centres undefined) | 716 s |
| CCC(CC)C(=O)N1CCC(N2CCN(Cc3ccc(C)cc3)C(=O)C2=O)CC1 | 756 s |
| Cc1ccc(NC(=O)CN2C(=O)CCc3cc(S(=O)(=O)N4CCCCC4C)ccc32)c(C)c1 (centres undefined) | 945 s |
| c1cc(-c2nc(-c3ccc4c(c3)ncn4CCN3CCCCC3)no2)co1 | 598 s |
| CCc1ccccc1NC(=O)C1CCCN(S(=O)(=O)c2c[nH]c(C(=O)N3CCCCCC3)c2)C1 (centres undefined) | 911 s |
| O=C(c1ccc(Cl)s1)N1CC(F)(F)C[C@H]1COc1cccnc1 | 731 s |
| CC1CCCN(c2ccc(-c3noc(CN4CCN(c5ccccn5)CC4)n3)cn2)C1 (centres undefined) | 908 s |
| Cc1ccc(NS(=O)(=O)c2cc3c(s2)CCN(C(=O)C2CCC2)C3)cc1 | 864 s |
| Cc1ccc(NC(=O)Cn2nc3cc(-c4ccccc4)nc(C)n3c2=O)c(F)c1 | 958 s |
| O=C1CCCc2c1cc(C(=O)NCc1ccccn1)c(=O)n2-c1ccc(F)cc1 | 630 s |
| Cn1c(N2CCCC(C(=O)Nc3ccccc3)C2)cc(=O)n(C)c1=O (centres undefined) | 649 s |
| CC(C)CC(C(=O)N1CCOCC1)N1CC2=C(C1=O)C(c1ccccc1Cl)NC(=O)N2C (centres undefined) | 894 s |
| CCC1(O)CCOC2(CCN(Cc3cc(OC)cc(OC)c3)CC2)C1 (centres undefined) | 568 s |
| CC(NC(=O)c1cccc2[nH]ccc12)C(=O)N1CCCc2ccccc21 (centres undefined) | 822 s |
| CCn1cc(CCNC(C)=O)c2cccnc21 | 561 s |
| O=C(c1ccc(Cl)s1)N1CCN(c2ncnc3c2CCC3)CC1 | 638 s |
| COC(=O)C1=C(COc2ccc(C)cc2)NC(=O)NC1c1ccc(OC)c(OC)c1 (centres undefined) | 976 s |
| CNC(=O)C1CCN(C(=O)Nc2ccc(NC(=O)Nc3ccc(C)cc3)cc2)CC1 | 658 s |
| Cc1nc(C)c(C(=O)Nc2nc(-c3ccccc3)c(C)s2)s1 | 930 s |
| Cc1ccccc1-c1cn2ccn(-c3cccc(Cl)c3)c(=O)c2n1 | 883 s |

| Structure (SMILES) | RP-LC retention time |
| --- | --- |
| O=C(COc1ccc2ccccc2c1)NCC(O)c1ccc(C(F)(F)F)cc1 (centres undefined) | 898 s |
| Cc1ccc(-c2cn3c(CC(=O)N4CCc5ccccc54)csc3n2)cc1C | 901 s |
| Cn1nc(C(=O)N2CCOCC2)c2c1CCN(C(=O)Nc1cccc(Br)c1)C2 | 726 s |
| Cc1ccc2nc(C(=O)NCc3cc(F)ccc3F)cn2c1 | 655 s |
| Cc1ccc(N2CC(c3noc(-c4cccn4C)n3)CC2=O)cc1 (centres undefined) | 611 s |
| CCCNC(=O)C1CCCN(c2ccc(SCC(=O)Nc3ccc(C(F)(F)F)cc3)nn2)C1 (centres undefined) | 690 s |
| Cn1c(=O)n(CCN2CCOCC2)c(=O)c2c1nc1n2CCCN1C1CCCCC1 | 627 s |
| COc1ccc(Nc2c(C(=O)N3CCCC3)cnc3nc(C)ccc23)c(OC)c1 | 600 s |
| CN(C)CCNC(=O)CCc1cc2ccccc2[nH]c1=O | 569 s |
| Cc1nnc(N2CCC(C(=O)N3CCC(C(N)=O)CC3)CC2)c2nn(-c3ccccc3)c(C)c12 | 599 s |
| COCCNC(=O)C1CCc2sc(C(=O)N3CCCCC3)cc2C1 (centres undefined) | 651 s |
| CCOc1ccc(-c2noc(CN3C(=O)COc4ccc(S(=O)(=O)CC)cc43)n2)cc1 | 944 s |
| CC(C)NC(=O)N1CCCC(c2cccc(C(=O)NCc3ccc(Cl)cc3)c2)C1 (centres undefined) | 923 s |
| Cn1cc(C(=O)NCCCc2ccccc2)c(S(=O)(=O)N2CCSCC2)n1 | 944 s |
| CCCn1c(=O)sc2cc(S(=O)(=O)N3CCC(C(=O)Nc4ccc(C)cn4)CC3)ccc21 | 808 s |
| CC1=CN2C(c3cccc([N+](=O)[O-])c3)=NON(c3ccc(C)cn3)C2C=C1 (centres undefined) | 1190 s |
| Cc1cc2c(N3CCCC(C(=O)N4CCN(c5ccccc5F)CC4)C3)nccc2s1 (centres undefined) | 755 s |
| COc1ccc(Cc2nn3c(CSc4ccccc4)nnc3s2)cc1 | 937 s |
| COc1cccc(-n2nnc(C(=O)O)c2-c2ccncc2)c1 | 628 s |
| COc1ccc2c(c1)C1CC(C)(NC(=O)C1S(=O)(=O)c1ccc(C)cc1)O2 (centres undefined) | 893 s |
